Measured values as given in patent US8414938B2, “Schisandrae fructus extracts for inhibition or prevention of H1N1 influenza virus infection and its application thereof” (National Defense Medical Center, priority 2011, dated 2013).
≈ marks a conversion by molar mass, not a printed value. Like-named read-outs stand apart in the source and are kept apart here.

Experiments:
influenza virus H1N1 = assay: organism not typed; assay type: cell-based; settings: for MIC: read-out: MIC, H1N1
MDCK cells [1] = settings: dog
MDCK cells [2] = assay: MTT cell survival of MDCK cells treated with sample alone (D group, pharmacotoxicity)
[3] = 6.25 μg/ml, compound and H1N1 at the same time, MDCK (Table 10)
[4] = 10 μg/ml, compound and H1N1 0.01 MOI at the same time, MDCK, 48 hrs (Table 9)
[5] = 25 μg/ml, compound and H1N1 at the same time, MDCK (Table 10)
[6] = 50 μg/ml, compound and H1N1 0.01 MOI at the same time, MDCK, 48 hrs (Table 9)
[7] = 50 μg/ml, compound and H1N1 at the same time, MDCK (Table 10)
[8] = 75 μg/ml, compound and H1N1 at the same time, MDCK (Table 10)
[9] = 100 μg/ml, compound and H1N1 at the same time, MDCK (Table 10)
[10] = 12.5 μg/ml, compound and H1N1 at the same time, MDCK (Table 10)
[11] = influenza virus H1N1, MDCK cells, MTT

| Structure (SMILES) | cell survival ratio, D + V (influenza virus H1N1; [3]) | cell survival ratio, D + V (influenza virus H1N1; [4]) | cell survival ratio, D + V (influenza virus H1N1; [5]) | cell survival ratio, D + V (influenza virus H1N1; [6]) | cell survival ratio, D + V (influenza virus H1N1; [7]) | cell survival ratio, D + V (influenza virus H1N1; [8]) | cell survival ratio, D + V (influenza virus H1N1; [9]) | MIC (influenza virus H1N1) [µg/mL] | pharmaceutical toxicity / cytotoxicity (MDCK cells [1]) | cell survival ratio, D (MDCK cells [2]; 12.5 μg/ml) | cell survival ratio, D + V (influenza virus H1N1; [10]) | MIC (influenza virus H1N1; [11]) [µg/mL] | cell survival ratio, D (MDCK cells [2]; 6.25 μg/ml) | MIC, H1N1 (influenza virus H1N1; [11]) [µg/mL] |
| --- | --- | --- | --- | --- | --- | --- | --- | --- | --- | --- | --- | --- | --- | --- |
| COc1cc2c(c(OC)c1OC)-c1c(cc3c(c1OC)OCO3)C[C@H](C)[C@@](C)(O)[C@H]2OC(=O)c1ccccc1 (atropisomer, axis not shown) [Benzoylgomisin P] | ++ (>50% but ≦75%) | +++ (>75% but ≦100%) | ++++ (>100%) | ++++ (>100%) | ++++ (>100%) | ++++ (>100%) | ++++ (>100%) | 12.5 (≈ 23.3 µM) | more than 100 μg/ml | ++++ (key: +/−: cell survival ratio ≦25%; +: >25% but ≦50%; ++: >50% but ≦75%; +++: >75% but ≦100%; ++++: >100%) |  |  |  |  |
| NC(=O)c1ncn([C@@H]2O[C@H](CO)[C@@H](O)[C@H]2O)n1 [Ribavirin, ribavirin, reference compound] |  |  |  |  |  |  |  | 3.12 (≈ 12.8 µM) |  |  |  |  |  |  |
| COc1cc2c(cc1O)C(=O)[C@@H](C)[C@@H](C)[C@@H]2c1ccc(OC)c(OC)c1 [Schisandrone] | + (>25% but ≦50%) | ++ (>50% but ≦75%) | ++++ (>100%) | ++++ (>100%) | ++++ (>100%) | ++++ (>100%) | +/− (cell survival ratio of ≦25%) |  | 100 µg/mL |  | ++++ (>100%) | 12.5 (≈ 35.1 µM) | ++++ (key: +/−: cell survival ratio ≦25%; +: >25% but ≦50%; ++: >50% but ≦75%; +++: >75% but ≦100%; ++++: >100%) |  |
| COc1cc([C@@H]2c3cc(OC)c(O)cc3C(=O)[C@@H](C)[C@H]2C)ccc1O [Wulignan A1] | ++ (>50% but ≦75%) | ++ (>50% but ≦75%) | ++++ (>100%) | ++++ (>100%) | ++++ (>100%) | ++++ (>100%) | ++++ (>100%) | 12.5 (≈ 36.5 µM) | more than 100 μg/ml | ++++ (key: +/−: cell survival ratio ≦25%; +: >25% but ≦50%; ++: >50% but ≦75%; +++: >75% but ≦100%; ++++: >100%) | +++ (>75% but ≦100%) |  |  |  |
| COc1cc([C@@H]2c3cc(OC)c(O)cc3C(=O)[C@H](C)[C@H]2C)ccc1O [Epiwulignan A1] | + (>25% but ≦50%) | + (>25% but ≦50%) | +++ (>75% but ≦100%) | ++++ (>100%) | ++++ (>100%) | ++++ (>100%) | ++++ (>100%) |  | more than 100 μg/ml | ++++ (key: +/−: cell survival ratio ≦25%; +: >25% but ≦50%; ++: >50% but ≦75%; +++: >75% but ≦100%; ++++: >100%) |  | 25 (≈ 73 µM) |  | 25.0 (≈ 73 µM) |
| C/C=C(\C)C(=O)O[C@H]1c2cc(OC)c(OC)c(OC)c2-c2c(cc3c(c2OC)OCO3)C[C@H](C)[C@@]1(C)O (atropisomer, axis not shown) [Tigloylgomisin P] | +/− (cell survival ratio of ≦25%) | +/− (cell survival ratio of ≦25%) | + (>25% but ≦50%) | +++ (>75% but ≦100%) | ++++ (>100%) | ++++ (>100%) | ++++ (>100%) |  | more than 100 μg/ml |  | +/− (cell survival ratio of ≦25%) | 50 (≈ 97.2 µM) |  | 50.0 (≈ 97.2 µM) |
